Measured values from patent US20070154405A1, “AEROSOL APPARATUS CONTAINING A COMPOSITION FOR APPLYING SIMULTANEOUSLY SEVERAL TOPICAL STIMULI” (priority 2005, published 2007).
Several values for one entry are separate records, joined by “and”; a condition that tells them apart may be missing. Identical values can stand only once.

What was measured:
[1] = tested on: Atopic Dermatitis; assay: Clinical Study 2: randomized single blind comparison of N1 and Hydrocortisone 1% in atopic dermatitis, SASSAD severity score; type: in vivo, human
Source text: The patients taking part in the clinical studies were given free kits of the aerosol apparatus of the present invention and a set of instructions detailing method of use as follows: 1) Remove clothing of the area of application. 2) If the face needs to be treated, the eyes should be closed or masked (for babies or small children) 3) Hold the apparatus at a distance of 10 cm-20 cm approximately. 4) Press the apparatus's actuator to release the water-based particles. 5) Apply for a few seconds or as needed then leave the treated areas to dry untouched. Repeat as many times as needed until the symptoms ease. 6) In chronic cases and in order to speed the healing process, apply a daily regimen of four times per day, once before bedtime until symptoms reduce or disappear.
125 Patients took part in a comparative, randomized, single (observer) blind, controlled clinical study.
The scoring system used to evaluate the results of both groups is “Six area, six sign atopic dermatitis (SASSAD) severity score [Jones J B. Six area, six sign atopic dermatitis (SASSAD) severity score: A simple system for monitoring disease activity in atopic dermatitis. Br J Dermatol. 1996; 135 (Suppl 48): 25-30] […] The signs are: Dryness, lichenification, cracking, erythema, exudation and excoriation. the six areas of the body are head, neck, trunk, arms, hands, legs and feet. The severity of the lesions are assessed as 0, 1, 2 and 3 for no lesion, mild, moderate and severe lesions respectively for each sign in each body area resulting in a score of maximum 18 for each sign. The six signs were evaluated objectively by the investigating physicians. Itching being a subjective symptom was evaluated by the patient.
The atopic dermatitis diagnosis was based on [Hanifin J. M., Rajka G. Diagnostic Features of Atopic Dermatitis, Acta Derma (Stock) Suppl. 92:44-47, 1980].

[2] = tested on: Itching (Atopic Dermatitis); assay: Clinical Study 2: itching by patient VAS in atopic dermatitis patients; type: in vivo, human
Source text: 125 Patients took part in a comparative, randomized, single (observer) blind, controlled clinical study. […] The age difference for both groups of males and females was statistically insignificant t=0.551, P=0.582 and t=1.307, P=0.194 respectively. […] The similar distribution allowed for a matching analysis with no statistical difference where Chi-square test=0.001, P=0.976. Due to the subjective nature of this symptom, all the patients were given VAS (Visual analogue scale graded 0=no itch to 10=severe itch) to complete at home twice daily, once in the morning and once in the evening, on the fifth, sixth and seventh day, after allowing for a washout period of four days. Table IX clarify the mean VAS score in both groups after treatment with their respective intervention. The N1 group has experienced a significant decline in their VAS score throughout the 5th, 6th and 7th days where paired t test for the decline in the 5th day=6.96, P=0.001 and for the 6th day=6.74, P=0.001 and for the 7th day=2.76, p=0.006.

[3] = Base score, listed as hydrocortisone
[4] = Week 1, listed as hydrocortisone

C[C@]12CCC(=O)C=C1CC[C@@H]1[C@@H]2[C@@H](O)C[C@@]2(C)[C@H]1CC[C@]2(O)C(=O)CO [Hydrocortisone]
Mean Cracking score ([1]; Base score): 1.17
Mean Dryness score ([1]; Base score): 4.32
Mean Erythema score ([1]; Base score): 3.6
Mean Excoriation score ([1]; Base score): 2.7
Mean Exudation score ([1]; Base score): 3.18
Mean Lichenification score ([1]; Base score): 2.44
Mean Erythema score [1, 3]: 3.6±2.5
Mean Lichenification score [1, 3]: 2.44±1.7
Mean Dryness score ([1]; Week 1): 2.9
Mean Erythema score ([1]; Week 1): 2.9
Mean Excoriation score ([1]; Week 1): 1.97
Mean Exudation score ([1]; Week 1): 2.5
Mean Lichenification score ([1]; Week 1): 1.55
Mean Exudation score [1, 4]: 2.5±2.4
Mean Lichenification score [1, 4]: 1.55±1.9
Mean Dryness score ([1]; Week 2): 2.13
Mean Erythema score ([1]; Week 2): 1.8
Mean Excoriation score ([1]; Week 2): 1.6
Mean Lichenification score ([1]; Week 2): .82
Mean Lichenification score ([1]; Week 2, listed as hydrocortisone): 0.82±1.3
group cleared of atopic dermatitis (SASSAD score of 0 or 1) ([1]; after Week One): 14%
group cleared of Atopic dermatitis ([1]; after two weeks treatment, total): 11%
patients cleared from atopic dermatitis (SASSAD score=0) ([1]; after week one): 9 patients
patients cleared from atopic dermatitis (SASSAD score=0), percent of group ([1]; after week one): 3.81%
Mean SASSAD score ([1]; at baseline, before treatment): 17.51±7.37 and 17.52 and 17.5
Mean SASSAD score ([1]; at baseline, before treatment, listed as hydrocortisone): 17.52±7.37
group cleared of atopic dermatitis (SASSAD score of 0 or 1) ([1]; at the end of Week Two): 6.3%
Mean SASSAD score ([1]; end of week one): 12.82±8.34 and 12.52±8.34 and 12.82 and 12.5
Mean SASSAD score ([1]; end of week two, patients who continued treatment): 8.4±6 and 8.4
Mean SASSAD score ([1]; end of week two, patients who continued treatment, listed as hydrocortisone): 8.4±6
itch free duration, mean ([2]; 3 day self-monitoring period): 1.76 ± 1.21 h
Mean itch VAS (0=no itch to 10=severe itch) ([2]; Day 5 Evening): 7.69
Mean itch VAS (0=no itch to 10=severe itch) ([2]; Day 5 Morning): 8.01
Mean itch VAS (0=no itch to 10=severe itch) ([2]; Day 5 Morning, listed as hydrocortisone): 8.01±1.65
Mean itch VAS (0=no itch to 10=severe itch) ([2]; Day 6 Evening): 7.06
Mean itch VAS (0=no itch to 10=severe itch) ([2]; Day 6 Morning): 7.17
Mean itch VAS (0=no itch to 10=severe itch) ([2]; Day 7 Evening): 6.58
Mean itch VAS (0=no itch to 10=severe itch) ([2]; Day 7 Evening, listed as hydrocortisone): 6.58±1.97
Mean itch VAS (0=no itch to 10=severe itch) ([2]; Day 7 Morning): 6.63
Mean itch VAS (0=no itch to 10=severe itch) ([2]; Day 7 Morning, listed as hydrocortisone): 6.63±1.93
